Reference: ChEMBL document CHEMBL2429804, “Examination of the phenolic profile and antioxidant activity of the leaves of the Australian native plant Smilax glyciphylla” (J Nat Prod, 2013)

Columns and labels:
[1] = Antioxidant activity assessed as trolox equivalent of DPPH scavenging activity after 4 mins by spectrophotometry; format: functional
[2] = Antioxidant activity assessed as trolox equivalent of ferric ion reducing activity using fe3+-TPTZ after 4 mins by FRAP assay; format: functional

Row | Structure (SMILES) | Activity [1] | Activity [2]
1 | O=c1c(O[C@@H]2O[C@H](CO)[C@@H](O)[C@H](O)[C@H]2O)c(-c2ccc(O)c(O)c2)oc2cc(O)cc(O)c12 | 0.56 equiv | 0.56 equiv
2 | Oc1cc(O)c2c(c1)OC(c1ccc(O)c(O)c1)C(O)C2 (stereo not given) | 0.44 equiv | 0.56 equiv
3 | O=C(CCc1ccc(O)c(O)c1)c1c(O)cc(O)cc1O | 0.88 equiv | 0.64 equiv
4 | C[C@@H]1O[C@@H](Oc2cc(O)cc(O)c2C(=O)CCc2ccc(O)c(O)c2)[C@H](O)[C@H](O)[C@H]1O | 0.48 equiv | 0.72 equiv
5 | O=c1c(O)c(-c2ccc(O)cc2)oc2cc(O)cc(O)c12 | 2.4 equiv | 2.36 equiv
